Molecular target: T1, ATP-citrate synthase (Homo sapiens, UniProt P53396)
T1 sequence (P53396 whole entry): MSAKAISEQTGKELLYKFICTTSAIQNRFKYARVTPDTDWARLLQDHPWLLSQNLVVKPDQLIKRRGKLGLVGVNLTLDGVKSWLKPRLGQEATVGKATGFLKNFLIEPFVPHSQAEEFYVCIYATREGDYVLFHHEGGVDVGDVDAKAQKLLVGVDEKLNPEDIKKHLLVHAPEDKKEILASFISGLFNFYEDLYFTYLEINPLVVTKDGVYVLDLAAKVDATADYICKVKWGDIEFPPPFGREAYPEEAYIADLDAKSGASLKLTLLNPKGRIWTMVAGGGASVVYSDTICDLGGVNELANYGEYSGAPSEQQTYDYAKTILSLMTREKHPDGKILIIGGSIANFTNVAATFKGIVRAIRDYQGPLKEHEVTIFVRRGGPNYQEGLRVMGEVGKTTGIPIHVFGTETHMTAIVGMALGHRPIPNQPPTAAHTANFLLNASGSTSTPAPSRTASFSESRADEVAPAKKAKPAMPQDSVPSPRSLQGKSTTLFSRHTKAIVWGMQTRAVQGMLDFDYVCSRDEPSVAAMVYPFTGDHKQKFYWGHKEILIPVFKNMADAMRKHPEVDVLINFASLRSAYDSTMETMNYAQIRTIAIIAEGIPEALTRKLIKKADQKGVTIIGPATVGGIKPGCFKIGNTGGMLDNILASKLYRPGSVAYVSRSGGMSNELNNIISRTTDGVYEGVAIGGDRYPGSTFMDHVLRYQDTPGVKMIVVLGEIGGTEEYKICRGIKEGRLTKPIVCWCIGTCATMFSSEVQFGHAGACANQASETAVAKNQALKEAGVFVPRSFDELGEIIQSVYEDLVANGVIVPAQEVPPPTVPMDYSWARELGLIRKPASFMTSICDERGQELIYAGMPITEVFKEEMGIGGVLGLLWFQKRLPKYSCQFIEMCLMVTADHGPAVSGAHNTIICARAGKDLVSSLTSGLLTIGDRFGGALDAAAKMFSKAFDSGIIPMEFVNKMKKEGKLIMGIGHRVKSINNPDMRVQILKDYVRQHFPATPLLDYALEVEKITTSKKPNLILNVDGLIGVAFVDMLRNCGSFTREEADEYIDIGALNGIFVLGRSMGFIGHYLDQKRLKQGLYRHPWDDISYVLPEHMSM
Assay: ADP-Glo Assay: Materials and Instruments Used in the ADP-Glo AssayVendor Cat No.Materials ACL Sino Biological 11769-H07BCoANa2 Sigma C3144Potassium Citrate Sigma 89306ATP Promega V915BADP-GloTM Kinase Assay Promega V9102kitHEPES Life Technologies 15630080MgCl2 Sigma M1028Brij 35 detergent Merck 203728DTT Sigma 646563DMSO MP 196055Optiplate-384, White 384- Perkin Elmer 6007290well384 dilution …

IC50: < 50 nM
SMILES: O=C(c1cc(Cl)c(O)c(S(=O)(=O)Nc2cc(-c3cc4ccccc4s3)c(F)cc2OC(F)(F)F)c1)N1CCC1
